# Measurements from PubChem BioAssay AID2060908 (Molecular Pharmacology Branch, DTP, NCI, 2025).
# Test system: 186277-243-T-J2-PDC complex spheroids, viability
# Assay: Anticancer human tumor 186277-243-T-J2-PDC patient-derived colon adenocarcinoma cell line growth inhibition [RAS]
# Details: for IC50: curve of first compound; for viability, T/C: stronger effect = lower value
# Summary of the method: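 Multi-cell-type spheroids: tumor cells plus HUVEC endothelial cells and mesenchymal stem cells. RAS-pathway inhibitors were combined with targeted agents, each dosed in half-log steps down from clinical Cmax, or from 10 microM when Cmax was unknown.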
# [1] = second compound 0.000949 µM, first compound 0.0316 µM
# [2] = second compound 0.000949 µM, first compound 0.1 µM
# [3] = second compound 0.000949 µM, first compound 0.316 µM
# [4] = second compound 0.000949 µM, first compound 1 µM
# [5] = second compound 0.003 µM, first compound 0.0316 µM
# [6] = second compound 0.003 µM, first compound 0.1 µM
# [7] = second compound 0.003 µM, first compound 0.316 µM
# [8] = second compound 0.003 µM, first compound 1 µM
# [9] = second compound 0.00949 µM, first compound 0.0316 µM
# [10] = second compound 0.00949 µM, first compound 0.1 µM
# [11] = second compound 0.00949 µM, first compound 0.316 µM
# [12] = second compound 0.00949 µM, first compound 1 µM
# [13] = second compound 0.03 µM, first compound 0.0316 µM
# [14] = second compound 0.03 µM, first compound 0.1 µM
# [15] = second compound 0.03 µM, first compound 0.316 µM
# [16] = second compound 0.03 µM, first compound 1 µM
# [17] = second compound 0.0949 µM, first compound 0.0316 µM
# [18] = second compound 0.0949 µM, first compound 0.1 µM
# [19] = second compound 0.0949 µM, first compound 0.316 µM
# [20] = second compound 0.0949 µM, first compound 1 µM
# [21] = second compound 0.3 µM, first compound 0.0316 µM
# [22] = second compound 0.3 µM, first compound 0.1 µM
# [23] = second compound 0.3 µM, first compound 0.316 µM
# [24] = second compound 0.3 µM, first compound 1 µM
# 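Also: spheroids exposed to compounds for 7 days before viability read.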
smiles,measurement,setting,value
C=CC(=O)Nc1cc(Nc2nccc(-c3cn(C)c4ccccc34)n2)c(OC)cc1N(C)CCN(C)C + C=CC(=O)N1CCN(c2nc(OCC3CCCN3C)nc3c(F)c(-c4nc(N)cc(C)c4C(F)(F)F)c(Cl)cc23)C(C)C1,IC50,second compound 0.00316 µM,> 1000 nM
same,IC50,second compound 0.01 µM,> 1000 nM
same,IC50,second compound 0.0316 µM,> 1000 nM
same,IC50,second compound 0.1 µM,> 1000 nM
same,IC50,second compound 0.316 µM,> 1000 nM
same,IC50,second compound 1 µM,> 1000 nM
same,"viability, T/C","second compound 0.00316 µM, first compound 0.00316 µM",82.3%
same,"viability, T/C","second compound 0.00316 µM, first compound 0.01 µM",89.4%
same,"viability, T/C","second compound 0.00316 µM, first compound 0.0316 µM",89.8%
same,"viability, T/C","second compound 0.00316 µM, first compound 0.1 µM",80.5%
same,"viability, T/C","second compound 0.00316 µM, first compound 0.316 µM",97.4%
same,"viability, T/C","second compound 0.00316 µM, first compound 1 µM",110%
same,"viability, T/C","second compound 0.01 µM, first compound 0.00316 µM",96.1%
same,"viability, T/C","second compound 0.01 µM, first compound 0.01 µM",88.2%
same,"viability, T/C","second compound 0.01 µM, first compound 0.0316 µM",89.8%
same,"viability, T/C","second compound 0.01 µM, first compound 0.1 µM",94%
same,"viability, T/C","second compound 0.01 µM, first compound 0.316 µM",107%
same,"viability, T/C","second compound 0.01 µM, first compound 1 µM",77.3%
same,"viability, T/C","second compound 0.0316 µM, first compound 0.00316 µM",84.8%
same,"viability, T/C","second compound 0.0316 µM, first compound 0.01 µM",91.6%
same,"viability, T/C","second compound 0.0316 µM, first compound 0.0316 µM",93.2%
same,"viability, T/C","second compound 0.0316 µM, first compound 0.1 µM",96.1%
same,"viability, T/C","second compound 0.0316 µM, first compound 0.316 µM",99.1%
same,"viability, T/C","second compound 0.0316 µM, first compound 1 µM",97%
same,"viability, T/C","second compound 0.1 µM, first compound 0.00316 µM",89.6%
same,"viability, T/C","second compound 0.1 µM, first compound 0.01 µM",85%
same,"viability, T/C","second compound 0.1 µM, first compound 0.0316 µM",79.5%
same,"viability, T/C","second compound 0.1 µM, first compound 0.1 µM",109%
same,"viability, T/C","second compound 0.1 µM, first compound 0.316 µM",126%
same,"viability, T/C","second compound 0.1 µM, first compound 1 µM",86.8%
same,"viability, T/C","second compound 0.316 µM, first compound 0.00316 µM",89.4%
same,"viability, T/C","second compound 0.316 µM, first compound 0.01 µM",94.3%
same,"viability, T/C","second compound 0.316 µM, first compound 0.0316 µM",103%
same,"viability, T/C","second compound 0.316 µM, first compound 0.1 µM",86.5%
same,"viability, T/C","second compound 0.316 µM, first compound 0.316 µM",130%
same,"viability, T/C","second compound 0.316 µM, first compound 1 µM",98.9%
same,"viability, T/C","second compound 1 µM, first compound 0.00316 µM",109%
same,"viability, T/C","second compound 1 µM, first compound 0.01 µM",78.8%
same,"viability, T/C","second compound 1 µM, first compound 0.0316 µM",91.9%
same,"viability, T/C","second compound 1 µM, first compound 0.1 µM",104%
same,"viability, T/C","second compound 1 µM, first compound 0.316 µM",82.1%
same,"viability, T/C","second compound 1 µM, first compound 1 µM",81.2%
C=CC(=O)N1CCN(c2nc(OCC3CCCN3C)nc3c(F)c(-c4nc(N)cc(C)c4C(F)(F)F)c(Cl)cc23)C(C)C1 (stereo unspecified) + CCn1c(-c2cccnc2C(C)OC)c2c3cc(ccc31)N1CCOC(CC(NC(=O)C(C(C)C)N(C)C(=O)C3(F)CCN(C(=O)C#CC(C)(C)N(C)C)CC3)C(=O)N3CCCC(N3)C(=O)OCC(C)(C)C2)C1,IC50,second compound 0.000949 µM,> 1000 nM
same,IC50,second compound 0.003 µM,> 1000 nM
same,IC50,second compound 0.00949 µM,> 1000 nM
same,IC50,second compound 0.03 µM,> 1000 nM
same,IC50,second compound 0.0949 µM,> 1000 nM
same,IC50,second compound 0.3 µM,> 1000 nM
same,"viability, T/C","second compound 0.000949 µM, first compound 0.00316 µM",88.7%
same,"viability, T/C","second compound 0.000949 µM, first compound 0.01 µM",79%
same,"viability, T/C",[1],89.2%
same,"viability, T/C",[2],80.8%
same,"viability, T/C",[3],95.6%
same,"viability, T/C",[4],96.6%
same,"viability, T/C","second compound 0.003 µM, first compound 0.00316 µM",88%
same,"viability, T/C","second compound 0.003 µM, first compound 0.01 µM",97.6%
same,"viability, T/C",[5],83.4%
same,"viability, T/C",[6],102%
same,"viability, T/C",[7],94.1%
same,"viability, T/C",[8],111%
same,"viability, T/C","second compound 0.00949 µM, first compound 0.00316 µM",91.6%
same,"viability, T/C","second compound 0.00949 µM, first compound 0.01 µM",102%
same,"viability, T/C",[9],104%
same,"viability, T/C",[10],106%
same,"viability, T/C",[11],98.6%
same,"viability, T/C",[12],98.3%
same,"viability, T/C","second compound 0.03 µM, first compound 0.00316 µM",81.4%
same,"viability, T/C","second compound 0.03 µM, first compound 0.01 µM",105%
same,"viability, T/C",[13],95.8%
same,"viability, T/C",[14],107%
same,"viability, T/C",[15],116%
same,"viability, T/C",[16],91.7%
same,"viability, T/C","second compound 0.0949 µM, first compound 0.00316 µM",85.3%
same,"viability, T/C","second compound 0.0949 µM, first compound 0.01 µM",109%
same,"viability, T/C",[17],121%
same,"viability, T/C",[18],106%
same,"viability, T/C",[19],95.6%
same,"viability, T/C",[20],93.7%
same,"viability, T/C","second compound 0.3 µM, first compound 0.00316 µM",98.2%
same,"viability, T/C","second compound 0.3 µM, first compound 0.01 µM",93.7%
same,"viability, T/C",[21],111%
same,"viability, T/C",[22],97.5%
same,"viability, T/C",[23],114%
same,"viability, T/C",[24],99.7%
CC(=O)OC12COC1CC(O)C1(C)C(=O)C(O)C3=C(C)C(OC(=O)C(O)C(NC(=O)OC(C)(C)C)c4ccccc4)CC(O)(C(OC(=O)c4ccccc4)C21)C3(C)C (stereo unspecified) + CCn1c(-c2cc(N3CCN(C)CC3)cnc2C(C)OC)c2c3cc(ccc31)-c1csc(n1)CC(NC(=O)C1CC1C)C(=O)N1CCCC(N1)C(=O)OCC(C)(C)C2,IC50,second compound 0.000949 µM,< 31.6 nM
same,IC50,second compound 0.003 µM,< 31.6 nM
same,IC50,second compound 0.00949 µM,< 31.6 nM
same,IC50,second compound 0.03 µM,< 31.6 nM
same,IC50,second compound 0.0949 µM,< 31.6 nM
same,IC50,second compound 0.3 µM,< 31.6 nM
same,"viability, T/C",[1],3.93%
same,"viability, T/C",[2],3.88%
same,"viability, T/C",[3],3.15%
same,"viability, T/C",[4],3.35%
same,"viability, T/C","second compound 0.000949 µM, first compound 3.16 µM",3.1%
same,"viability, T/C","second compound 0.000949 µM, first compound 10 µM",2.87%
same,"viability, T/C",[5],4.18%
same,"viability, T/C",[6],3.41%
same,"viability, T/C",[7],3.5%
same,"viability, T/C",[8],3.44%
same,"viability, T/C","second compound 0.003 µM, first compound 3.16 µM",3.13%
same,"viability, T/C","second compound 0.003 µM, first compound 10 µM",3.15%
same,"viability, T/C",[9],4.39%
same,"viability, T/C",[10],3.52%
same,"viability, T/C",[11],3.8%
same,"viability, T/C",[12],3.26%
same,"viability, T/C","second compound 0.00949 µM, first compound 3.16 µM",3.42%
same,"viability, T/C","second compound 0.00949 µM, first compound 10 µM",3.14%
same,"viability, T/C",[13],3.02%
same,"viability, T/C",[14],3.1%
same,"viability, T/C",[15],2.91%
same,"viability, T/C",[16],3.18%
same,"viability, T/C","second compound 0.03 µM, first compound 3.16 µM",2.79%
same,"viability, T/C","second compound 0.03 µM, first compound 10 µM",2.64%
same,"viability, T/C",[17],2.92%
same,"viability, T/C",[18],2.71%
same,"viability, T/C",[19],3.02%
same,"viability, T/C",[20],2.38%
same,"viability, T/C","second compound 0.0949 µM, first compound 3.16 µM",2.59%
same,"viability, T/C","second compound 0.0949 µM, first compound 10 µM",2.18%
same,"viability, T/C",[21],2.53%
same,"viability, T/C",[22],2.47%
same,"viability, T/C",[23],2.58%
same,"viability, T/C",[24],2.35%
same,"viability, T/C","second compound 0.3 µM, first compound 3.16 µM",2.5%
same,"viability, T/C","second compound 0.3 µM, first compound 10 µM",2.28%
